Measurements reported in PubChem BioAssay (NCI).
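Five concentrations, 48 hours, 96-well plates. TGI is the concentration that stops growth completely.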

How the values were obtained:
Test in all cases: NCI tumour cell line growth inhibition, 48 h
[1] = system: 786-0 renal
[2] = system: A498 renal
[3] = system: A549 NSCLC
[4] = system: ACHN renal
[5] = system: CAKI-1 renal
[6] = system: CCRF-CEM leukemia
[7] = system: COLO 205 colon
[8] = system: DLD-1 colon
[9] = system: DMS 114 small cell lung
[10] = system: DMS 273 small cell lung
[11] = system: EKVX NSCLC
[12] = system: HCC-2998 colon
[13] = system: HCT-15 colon
[14] = system: HL-60(TB) leukemia
[15] = system: HOP-18 NSCLC
[16] = system: HOP-62 NSCLC
[17] = system: HT29 colon
[18] = system: IGROV1 ovarian
[19] = system: K-562 leukemia
[20] = system: KM12 colon
[21] = system: KM20L2 colon
[22] = system: LOX IMVI melanoma
[23] = system: LXFL 529 NSCLC
[24] = system: M14 melanoma
[25] = system: M19-MEL melanoma
[26] = system: MALME-3M melanoma
[27] = system: MOLT-4 leukemia
[28] = system: NCI-H226 lung
[29] = system: NCI-H23 lung
[30] = system: NCI-H460 lung
[31] = system: NCI-H522 lung
[32] = system: OVCAR-3 ovarian
[33] = system: OVCAR-4 ovarian
[34] = system: OVCAR-5 ovarian
[35] = system: OVCAR-8 ovarian
[36] = system: RPMI-8226 leukemia
[37] = system: RXF-631 renal
[38] = system: SF-268 CNS
[39] = system: SF-295 CNS
[40] = system: SF-539 CNS
[41] = system: SK-MEL-2 melanoma
[42] = system: SK-MEL-28 melanoma
[43] = system: SK-MEL-5 melanoma
[44] = system: SK-OV-3 ovarian
[45] = system: SN12C renal
[46] = system: SNB-19 CNS
[47] = system: SNB-75 CNS
[48] = system: SNB-78 CNS
[49] = system: SW-620 colon
[50] = system: TK-10 renal
[51] = system: U251 CNS
[52] = system: UACC-257 melanoma
[53] = system: UACC-62 melanoma
[54] = system: UO-31 renal
[55] = system: XF 498 CNS
[56] = system: HCT-116 colon
[57] = system: HOP-92 NSCLC
[58] = system: RXF 393 renal
[59] = system: SR leukemia

## CCOc1ccc2c(c1)[n+]([O-])c(-c1ccc(Br)cc1)c(N)[n+]2[O-]
[1]
  TGI: > 100 µM
[2]
  TGI: > 100 µM
[3]
  TGI: > 100 µM
[4]
  TGI: > 100 µM
[5]
  TGI: 64.1 µM
[6]
  TGI: > 100 µM
[7]
  TGI: 52.4 µM
[8]
  TGI: > 100 µM
[9]
  TGI: > 100 µM
[10]
  TGI: > 100 µM
[11]
  TGI: > 100 µM
[12]
  TGI: > 100 µM
[13]
  TGI: > 100 µM
[14]
  TGI: > 100 µM
[15]
  TGI: > 100 µM
[16]
  TGI: > 100 µM
[17]
  TGI: > 100 µM
[18]
  TGI: > 100 µM
[19]
  TGI: > 100 µM
[20]
  TGI: > 100 µM
[21]
  TGI: > 100 µM
[22]
  TGI: > 100 µM
[23]
  TGI: > 100 µM
[24]
  TGI: > 100 µM
[25]
  TGI: > 100 µM
[26]
  TGI: > 100 µM
[27]
  TGI: > 100 µM
[28]
  TGI: > 100 µM
[29]
  TGI: 70.8 µM
[30]
  TGI: > 100 µM
[31]
  TGI: 33.7 µM
[32]
  TGI: > 100 µM
[33]
  TGI: > 100 µM
[34]
  TGI: > 100 µM
[35]
  TGI: > 100 µM
[36]
  TGI: > 100 µM
[37]
  TGI: > 100 µM
[38]
  TGI: > 100 µM
[39]
  TGI: > 100 µM
[40]
  TGI: > 100 µM
[41]
  TGI: > 100 µM
[42]
  TGI: > 100 µM
[43]
  TGI: 40.9 µM
[44]
  TGI: > 100 µM
[45]
  TGI: > 100 µM
[46]
  TGI: > 100 µM
[47]
  TGI: > 100 µM
[48]
  TGI: > 100 µM
[49]
  TGI: > 100 µM
[50]
  TGI: > 100 µM
[51]
  TGI: > 100 µM
[52]
  TGI: > 100 µM
[53]
  TGI: > 100 µM
[54]
  TGI: > 100 µM
[55]
  TGI: > 100 µM

## O=C(CCC(=O)Nc1ccc(Cl)c(Cl)c1)CC(=O)c1ccc(F)cc1
[1]
  TGI: > 100 µM
[3]
  TGI: > 100 µM
[4]
  TGI: > 100 µM
[5]
  TGI: > 100 µM
[6]
  TGI: > 100 µM
[7]
  TGI: > 100 µM
[8]
  TGI: > 100 µM
[9]
  TGI: > 100 µM
[10]
  TGI: > 100 µM
[11]
  TGI: > 100 µM
[12]
  TGI: > 100 µM
[56]
  TGI: > 100 µM
[14]
  TGI: > 100 µM
[15]
  TGI: > 100 µM
[16]
  TGI: > 100 µM
[57]
  TGI: > 100 µM
[17]
  TGI: > 100 µM
[18]
  TGI: > 100 µM
[19]
  TGI: > 100 µM
[20]
  TGI: > 100 µM
[21]
  TGI: > 100 µM
[22]
  TGI: > 100 µM
[23]
  TGI: > 100 µM
[24]
  TGI: > 100 µM
[25]
  TGI: > 100 µM
[26]
  TGI: > 100 µM
[27]
  TGI: > 100 µM
[28]
  TGI: > 100 µM
[29]
  TGI: > 100 µM
[30]
  TGI: > 100 µM
[32]
  TGI: > 100 µM
[33]
  TGI: > 100 µM
[34]
  TGI: > 100 µM
[35]
  TGI: > 100 µM
[58]
  TGI: > 100 µM
[37]
  TGI: > 100 µM
[38]
  TGI: > 100 µM
[39]
  TGI: > 100 µM
[40]
  TGI: > 100 µM
[42]
  TGI: > 100 µM
[43]
  TGI: > 100 µM
[44]
  TGI: > 100 µM
[45]
  TGI: > 100 µM
[46]
  TGI: > 100 µM
[48]
  TGI: > 100 µM
[59]
  TGI: > 100 µM
[49]
  TGI: > 100 µM
[51]
  TGI: > 100 µM
[52]
  TGI: > 100 µM
[53]
  TGI: > 100 µM
[54]
  TGI: > 100 µM
